pIC50: −log10 of the molar value. Activity calls are given as the source filed them. No cut-off for these calls is given here.
System: MONO-MAC-6
Experiment: Antagonistic activity against Escherichia coli LPS-induced TNFalpha production in human Mono Mac 6 cells after 5.5 hrs
Format: functional, cell-based
Settings: for pIC50: Homo sapiens, MONO-MAC-6, 5.5 h

| Structure (SMILES) | Activity | Inhibition | pIC50 |
| --- | --- | --- | --- |
| CCCCCCCCCCCCCC(=O)O[C@H](CCCCCCCCCCCCC)CC(=O)N[C@H]1[C@H](OC[C@H]2OC(=O)[C@H](NC(=O)C[C@H](O)CCCCCCCCCCCCC)[C@@H](OC(=O)C[C@H](O)CCCCCCCCCCCCC)[C@@H]2O)O[C@H](CO)[C@@H](O)[C@@H]1OC(=O)C[C@H](O)CCCCCCCCCCCCC | Active |  |  |
| CCCCCCCCCCCCC[C@@H](O)CC(=O)N[C@H]1C(=O)O[C@H](CO[C@@H]2O[C@H](CO)[C@@H](O)[C@H](OC(=O)C[C@H](O)CCCCCCCCCCCCC)[C@H]2NC(=O)C[C@@H](CCCCCCCCCCCCC)OC(=O)CCCCCCCCCCCCCCCCCCCCCCCCCC(C)O)[C@@H](O)[C@@H]1OC(=O)C[C@H](O)CCCCCCCCCCCCC (some centres undefined) |  | 86% | 5.04 |
| CCCCCCCCCCCCCCCCCCCCCCCCCCCC(=O)O[C@H](CCCCCCCCCCCCC)CC(=O)N[C@H]1[C@H](OC[C@H]2OC(=O)[C@H](NC(=O)C[C@H](O)CCCCCCCCCCCCC)[C@@H](OC(=O)C[C@H](O)CCCCCCCCCCCCC)[C@@H]2O)O[C@H](CO)[C@@H](O)[C@@H]1OC(=O)C[C@H](O)CCCCCCCCCCCCC |  |  | 5.12 |
